Test results from US20220363681A1, “OXO SIX-MEMBERED CYCLOPYRIMIDINE COMPOUND, PREPARATION METHOD AND MEDICAL USE THEREOF” (GenFleet Therapeutics (Shanghai) Inc., priority 2019, published 2022).

Legend:
[1] = test system: Kras G12C mutant NCI-H358 cells; assay: Cell proliferation inhibition experiment, 3D cell model, CellTiter-Glo (H358); type: cell-based, human; conditions: NCI-H358, 2% FBS RPMI-1640, 384-well sphere plate, cultured 5 days with compound
Protocol: (§1) NCI-H358 was a human non-small cell lung cancer cell line with Kras G12C mutation, cultured in 10% FBS RPMI-1640 medium; A549 was a human lung adenocarcinoma cell line with Kras G12S mutation, cultured in 10% FBS F-12K medium. The cells in the logarithmic growth phase was taken, digested with trypsin EDTA, collected and counted, and H358 was adjusted to 1.8E4 cells/ml using 2% FBS RPMI-1640 medium, and A549 was adjusted to 8.9E3 cells/ml using 2% FBS F-12K medium; 800 (45 μl) H358 or 400 (45 μl) A549 cells were seeded in a 384-well sphere plate respectively, cultured overnight to establish a 3D cell model. DMSO was used to prepare 1000× compound 3.16-fold gradient concentration stock solution, and 2% FBS medium was used to dilute 100-fold to 10× compound stock solution. On the second day after cell seeding, 5 μl 10× compound stock solution was added to each cell culture well, the final concentration was 1×, and DMSO content was 0.1%. DMSO was used as the experimental control (control) and 2% FBS medium as the blank control (blank). After the compound and cells were added and cultured for 5 days, 25 μl CellTiter-Glo working solution was added to each well, mixed at 400 rpm and incubated for 30 minutes. After standing 30 minutes at room temperature, 40 μl of the mixture was transfered to a 384-well plate with a non-transparent white bottom, the luminescence chemiluminescence value was read, and the cells proliferation inhibition rate IR (%)=(RLU control-RLU compound)/(RLU control-RLU blank)×100% was calculated, Prism 6 four-parameter method was used to fit the compound's gradient dilution concentration and the corresponding cell proliferation inhibition rate, and the IC50 value was calculated.

[2] = test system: A549 cells (Kras G12S mutation); assay: Cell proliferation inhibition experiment, 3D cell model, CellTiter-Glo (A549); type: cell-based, human; conditions: A549, 2% FBS F-12K, 384-well sphere plate, cultured 5 days with compound
Protocol: as §1

| IC50 ([1]; Homo sapiens, NCI-H358, 120 h) | IC50 ([2]; Homo sapiens, A549, 120 h) | IC50 [1] | IC50 [2] | SMILES |
| --- | --- | --- | --- | --- |
| – | > 1 µM | 16 nM | – | C=CC(=O)N1CCN(c2nc(OC[C@@H]3CCCN3C)nc3c(OC4CC4)c(-c4c(C)ccc5[nH]ncc45)c(Cl)cc23)CC1 [Compound Z7, 1-(4-(6-chloro-8-cyclopropoxy-7-(5-methyl-1H-indazol-4-yl)-2-(((S)-1-methylpyrrolidin-2-yl)methoxy)quinazolinpyridin-4-yl)piperazin-1-yl)prop-2-en-1-one] |
| 257 nM | > 10 µM | – | – | C=CC(=O)N1CCN(c2nc(OC[C@@H]3CCCN3C)nc3c(OC4CCOC4)c(-c4c(C)ccc5[nH]ncc45)c(Cl)cc23)CC1 (stereo partly drawn) [Compound Z10A, 1-(4-(6-chloro-7-(5-methyl-1H-indazol-4-yl)-2-(((S)-1-methylpyrrolidin-2-yl)methoxy)-8-((tetrahydrofuran-3-yl)oxy)quinazolin-4-yl)piperazin-1-yl)prop-2-en-1-one] |
| – | – | 18 nM | > 10 µM | C=CC(=O)N1CCN(c2nc(OC3CCN(C)CC3)nc3c(OC4CC4)c(-c4c(C)ccc5[nH]ncc45)c(Cl)cc23)CC1 [Compound Z12, 1-(4-(6-chloro-8-cyclopropoxy-7-(5-methyl-1H-indazol-4-yl)-2-((1-methylpiperidin-4-yl)oxy)quinazolin-4-yl)piperazin-1-yl)prop-2-en-1-one] |
| 20 nM | > 1 µM | – | – | C=CC(=O)N1CCN(c2nc(OC3CCN(C)C3)nc3c(OC4CC4)c(-c4c(C)ccc5[nH]ncc45)c(Cl)cc23)CC1 (stereo not drawn) [Compound Z32] |
| 39 nM | > 5 µM | – | – | C=CC(=O)N1CCN(c2nc(N3CC(N(C)C)C3)nc3c(OC4CC4)c(-c4c(C)ccc5[nH]ncc45)c(Cl)cc23)CC1 [Compound Z33, 1-(4-(6-chloro-8-cyclopropoxy-2-(3-(dimethylamino)azetidine-1-yl)-7-(5-methyl-1H-indazol-4-yl)quinazolin-4-yl)piperazin-1-yl)prop-2-en-1-one] |
| 38 nM | > 30 µM | – | – | C=CC(=O)N1CCN(c2nc(N3CCC(N(C)C)CC3)nc3c(OC4CC4)c(-c4c(C)ccc5[nH]ncc45)c(Cl)cc23)CC1 [Compound Z34, 1-(4-(6-chloro-8-cyclopropoxy-2-(4-(dimethylamino)piperidin-1-yl)-7-(5-methyl-1H-indazol-4-yl)quinazolin-4-yl)piperazin-1-yl)prop-2-en-1-one] |
| 43 nM | > 5 µM | – | – | C=CC(=O)N1CCN(c2nc(N3CCC(N(C)C)C3)nc3c(OC4CC4)c(-c4c(C)ccc5[nH]ncc45)c(Cl)cc23)CC1 (stereo not drawn) [Compound Z35, 1-(4-(6-chloro-8-cyclopropoxy-2-(3-(dimethylamino)pyrrolidin-1-yl)-7-(5-methyl-1H-indazol-4-yl)quinazolin-4-yl)piperazin-1-yl)prop-2-en-1-one] |
| 16 nM | > 30 µM | – | – | C=CC(=O)N1CCN(c2nc(OCCN(C)C)nc3c(OC4CC4)c(-c4c(C)ccc5[nH]ncc45)c(Cl)cc23)CC1 [Compound Z36] |
| 19 nM | > 30 µM | – | – | C=CC(=O)N1CCN(c2nc(OC[C@@H]3C[C@@H](F)CN3C)nc3c(OC4CC4)c(-c4c(C)ccc5[nH]ncc45)c(Cl)cc23)CC1 [Compound Z38, 1-(4-(6-chloro-8-cyclopropoxy-2-((((2S, 4R)-4-fluoro-1-methylpyrrolidin-2-yl)methoxy)-7]-(5-methyl-1H-indazol-4-yl)quinazolin-4-yl)piperazin-1-yl)prop-2-en-1-one] |
| 21 nM | > 5 µM | – | – | C=CC(=O)N1CCN(c2nc(O[C@@H]3CCN(C)C3)nc3c(OC4CC4)c(-c4c(C)ccc5[nH]ncc45)c(Cl)cc23)CC1 [Compound Z39] |
| – | – | 25 nM | > 1 µM | C=CC(=O)N1CCN(c2nc(O[C@H]3CCN(C)C3)nc3c(OC4CC4)c(-c4c(C)ccc5[nH]ncc45)c(Cl)cc23)CC1 [Compound Z40] |
| 18 nM | > 30 µM | – | – | C=CC(=O)N1CCN(c2nc(OC[C@@H]3C[C@H](F)CN3C)nc3c(OC4CC4)c(-c4c(C)ccc5[nH]ncc45)c(Cl)cc23)CC1 [Compound Z45, 1-(4-(6-chloro-8-cyclopropoxy-2-((((2S, 4S)-4-fluoro-1-methylpyrrolidin-2-yl)methoxy)-7]-(5-methyl-1H-indazol-4-yl)quinazolin-4-yl)piperazin-1-yl)prop-2-en-1-one] |

The next lines start with the compound.

| SMILES | IC50 ([1]; Homo sapiens, NCI-H358, 120 h) | IC50 ([2]; Homo sapiens, A549, 120 h) | IC50 [1] | IC50 [2] |
| --- | --- | --- | --- | --- |
| C=CC(=O)N1CCN(c2nc(OC[C@@H]3CCCN3C)nc3c(OC4CC(F)(F)C4)c(-c4c(C)ccc5[nH]ncc45)c(Cl)cc23)C[C@@H]1CC#N [Compound Z6, 2-((2S)-1-acryloyl-4-(6-chloro-8-(3,3-difluorocyclobutoxy)-7-(5-methyl-1H-indazol-4-yl)-2-(((S)-1-methylpyrrolidin-2-yl)methoxy)quinazolin-4-yl)piperazin-2-yl) acetonitrile] | 139 nM | > 5 µM | – | – |
| C=CC(=O)N1CCN(c2nc(OC[C@@H]3CCCN3C)nc3c(OC4CCC4)c(-c4c(C)ccc5[nH]ncc45)c(Cl)cc23)CC1 [Compound Z8, 1-(4-(6-chloro-8-cyclobutoxy-7-(5-methyl-1H-indazol-4-yl)-2-(((S)-1-methylpyrrolidin-2-yl)methoxy)quinazolinpyridin-4-yl)piperazin-1-yl)prop-2-en-1-one] | 70 nM | > 10 µM | – | – |
| C=CC(=O)N1CCN(c2nc(OC[C@@H]3CCCN3C)nc3c(OC4CC4)c(-c4c(O)cccc4F)c(Cl)cc23)CC1 [Compound Z13] | 336 nM | > 1 µM | – | – |
| C=CC(=O)N1CCN(c2nc(OC[C@@H]3CCCN3C)nc3c(OC4CC4)c(-c4c(C)ccc5[nH]ncc45)c(Cl)cc23)[C@H](C)C1 [Compound Z27, 1-((3R)-4-(6-chloro-8-cyclopropoxy-7-(5-methyl-1H-indazol-4-yl)-2-(((S)-1-methylpyrrolidin-2-yl)methoxy)quinazolin-4-yl)-3-methylpiperazin-1-yl)prop-2-en-1-one] | 324 nM | > 1 µM | – | – |
| C=CC(=O)N1CCN(c2nc(OC[C@@H]3CCCN3C)nc3c(OC4CC4)c(-c4c(C)ccc5[nH]ncc45)c(Cl)cc23)[C@@H](C)C1 [Compound Z28, 1-((3S)-4-(6-chloro-8-cyclopropoxy-7-(5-methyl-1H-indazol-4-yl)-2-(((S)-1-methylpyrrolidin-2-yl)methoxy)quinazolin-4-yl)-3-methylpiperazin-1-yl)prop-2-en-1-one] | 11 nM | > 1 µM | – | – |
| C=CC(=O)N1CCN(c2nc(OC[C@@H]3CCCN3C)nc3c(OC4CC4)c(-c4c(C)ccc5[nH]ncc45)c(Cl)cc23)C[C@@H]1C [Compound Z29, 1-((2S)-4-(6-chloro-8-cyclopropoxy-7-(5-methyl-1H-indazol-4-yl)-2-((((S)-1-methylpyrrolidin-2-yl))methoxy)quinazolin-4-yl)-2-methylpiperazin-1-yl)prop-2-en-1-one] | 51 nM | > 10 µM | – | – |
| C=CC(=O)N1CCN(c2nc(OC[C@@H]3CCCN3C)nc3c(OC4CC4)c(-c4c(C)ccc5[nH]ncc45)c(Cl)cc23)C[C@H]1C [Compound Z30, 1-((2R)-4-(6-chloro-8-cyclopropoxy-7-(5-methyl-1H-indazol-4-yl)-2-((((S)-1-methylpyrrolidin-2-yl))methoxy)quinazolin-4-yl)-2-methylpiperazin-1-yl)prop-2-en-1-one] | 26 nM | > 5 µM | – | – |
| C=CC(=O)N1CCN(c2nc(OC[C@@H]3CCCN3C)nc3c(OC4CC4)c(-c4c(C)ccc5[nH]ncc45)c(Cl)cc23)CC1CC#N (stereo partly drawn) [Compound Z31] | 34 nM | > 10 µM | – | – |
| C=CC(=O)N1CCN(c2nc(N3CCN(C)CC3)nc3c(OC4CC4)c(-c4c(C)ccc5[nH]ncc45)c(Cl)cc23)CC1 [Compound Z37] | 51 nM | > 5 µM | – | – |
| C=CC(=O)N1[C@@H]2CC[C@H]1CN(c1nc(OC[C@@H]3CCCN3C)nc3c(OC4CC4)c(-c4c(C)ccc5[nH]ncc45)c(Cl)cc13)C2 [Compound Z42, 1-((1R, 5S)-3-(6-chloro-8-cyclopropoxy-7-(5-methyl-1H-indazol-4-yl)-2-(((S)-1-methylpyrrolidin-2-yl)methoxy)quinazolin-4-yl)-3,8-diazabicyclo[3.2.1]octane-8-yl)prop-2-en-1-one] | 331 nM | > 30 µM | – | – |
| C=CC(=O)N1CCN(c2nc(OC[C@@H]3CCCN3C)nc3c(OC4CC4)c(-c4c(C)ccc5[nH]ncc45)c(Cl)cc23)C[C@@H]1CC#N [Compound Z46] | – | – | 2 nM | > 30 µM |
| C=CC(=O)N1CCN(c2nc(OC[C@@H]3CCCN3C)nc3c(OC4CC4)c(-c4c(C)ccc5[nH]nc(F)c45)c(Cl)cc23)CC1 [Compound Z47, 1-(4-(6-chloro-8-cyclopropoxy-7-(3-fluoro-5-methyl-1H-indazol-4-yl)-2-((((S)-1-methylpyrrolidin-2-yl))methoxy)quinazolin-4-yl)piperazin-1-yl)prop-2-en-1-one] | 38 nM | > 5 µM | – | – |
